Assay results taken from patent US10688080B2, “Compositions, methods of use, and methods of treatment” (priority 2016, dated 2020).
pKi: −log10 of the molar value.

Tests used:
KPC-2 = molecular target: T1, KPC-2 (Klebsiella pneumoniae, UniProt Q9F663); experiment: Steady-state kinetic nitrocefin hydrolysis inhibition, KPC-2; type: biochemical
T1 construct: made in house; host or cells: bacteria, IPTG-induced
Procedure: For His tag KPC-2 beta-lactamase, bacteria were grown overnight at 30 C with shaking in 50 mL LB broth supplemented with 50 μg/mL kanamycin. Two liters of LB broth supplemented with 50 μg/mL kanamycin, 200 mM sorbitol, and 5 mM betaine were each inoculated with 10 mL of overnight bacterial culture. Cultures were then grown at 37 C until an optical density at 600 nm (OD600) of 0.6-0.7. Protein expression was then initiated by the addition of IPTG (final concentration 0.5 mM), followed by growth for 16 hr at 20 C. Cells were pelleted by centrifugation and stored at −80 C until further use. The his tag KPC-2 beta-lactamase was purified by nickel affinity chromatography and gel filtration. Briefly, the cell pellets were thawed and re-suspended in 40 mL of buffer A (20 mM Tris-HCl pH 8.0, 300 mM NaCl, 20 mM imidazole) with one complete protease inhibitor cocktail tablet (Roche) and disrupted by sonication, followed by ultracentrifugation to clarify the lysate. After ultracentrifugation, the supernatant was passed through a 0.22 μm filter before loading onto a 5 mL HisTrap HP affinity column (GE Healthcare Life Sciences, USA) pre-equilibrated with buffer A. His tag KPC-2 was eluted by a linear imidazole gradient (20 mM to 500 mM). Fractions were analyzed by SDS-PAGE. Fractions containing his tag KPC-2 were concentrated using a 10 k NMWL Amicon Ultra-15 Centrifugal Filter Unit. Concentrated his tag KPC-2 was then loaded onto a superdex 75 gel filtration column (GE Healthcare Life Sciences) pre-equilibrated with 20 mM Tris-HCl pH 8.0, 300 mM NaCl. Protein concentration was determined by absorbance at 280 using an extinction coefficient of 39,545.
(§1) Steady-state kinetic parameters were determined by using a Biotek Cytation 5 Cell Imaging Multi-Mode Reader. For KPC-2 and CTX M-14, each assay was performed in 100 mM Tris-HCl pH 7.0, 0.01% Triton X-100 at 37 C. Vmax and Km were determined from initial steady-state velocities from nitrocefin read at a wavelength of 486 nm. The kinetic parameters were obtained using the non-linear portion of the data to the Henri-Michaelis (equation 1) using Gera version 2.07. V=Vmax[S]/(Km+[S]) (Equation 1)
(§2) IC50, defined as the inhibitor concentration that results in a 50% reduction of nitrocefin (20 μM for KPC-2 and 50 μM for CTX M-14) hydrolysis was determined by measurements of initial velocities after mixing 1 nM of KPC-2 or CTX M-14 with increasing concentrations of inhibitors. The inhibition constant (Ki) was calculated according to equation 2: Ki=IC50/([S]/Km+1) (Equation 2)

CTX-M14 = CTX-M14 (Escherichia coli, UniProt Q9L5C7); experiment: Steady-state kinetic nitrocefin hydrolysis inhibition, CTX-M14; type: biochemical; details: for pKi: nitrocefin 50 μM, 1 nM enzyme, Ki=IC50/([S]/Km+1)
Chain of CTX-M14 (Q9L5C7 29-291, species assumed): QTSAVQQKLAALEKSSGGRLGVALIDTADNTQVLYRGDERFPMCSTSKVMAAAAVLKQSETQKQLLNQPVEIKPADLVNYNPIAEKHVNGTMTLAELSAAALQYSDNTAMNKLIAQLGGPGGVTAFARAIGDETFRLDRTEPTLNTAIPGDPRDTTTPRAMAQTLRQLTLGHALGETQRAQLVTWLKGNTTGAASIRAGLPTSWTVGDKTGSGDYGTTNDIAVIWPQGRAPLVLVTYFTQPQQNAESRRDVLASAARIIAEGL
Procedure: as §1, §2

SHV-2 = SHV-2 (Klebsiella pneumoniae, UniProt P0A9Z8); experiment: Steady-state kinetic β-lactamase inhibition, SHV-2; type: biochemical
Chain of SHV-2 (P0A9Z8 22-286): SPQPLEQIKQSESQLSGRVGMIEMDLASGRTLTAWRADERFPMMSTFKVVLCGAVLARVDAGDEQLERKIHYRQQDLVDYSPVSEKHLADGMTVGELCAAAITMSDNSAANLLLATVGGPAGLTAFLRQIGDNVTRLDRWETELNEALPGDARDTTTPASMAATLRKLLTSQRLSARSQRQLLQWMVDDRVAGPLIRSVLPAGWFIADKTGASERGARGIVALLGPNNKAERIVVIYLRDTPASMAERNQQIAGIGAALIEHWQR

NDM-1 = molecular target: T2, NDM-1 (Klebsiella pneumoniae, UniProt C7C422); experiment: Steady-state kinetic nitrocefin hydrolysis inhibition, NDM-1; type: biochemical; details: for pKi: nitrocefin 10 μM, 1 μM ZnSO4, Ki=IC50/([S]/Km+1)
T2 construct: SUMO tag (cleaved yes); made in house; host or cells: bacteria, IPTG-induced
T2 sequence (C7C422 29-270, looked up, species assumed): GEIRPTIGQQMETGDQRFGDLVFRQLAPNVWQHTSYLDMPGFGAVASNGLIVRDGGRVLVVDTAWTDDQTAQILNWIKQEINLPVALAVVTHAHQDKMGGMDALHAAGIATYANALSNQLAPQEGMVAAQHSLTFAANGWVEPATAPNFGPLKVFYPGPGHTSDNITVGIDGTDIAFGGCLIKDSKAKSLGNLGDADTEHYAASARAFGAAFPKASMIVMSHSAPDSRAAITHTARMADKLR
Procedure: For sumo tag NDM-1 metallo-beta-lactamase, bacteria were grown overnight at 30 C with shaking in 50 mL LB broth supplemented with 100 μg/mL ampicillin. Two liters of LB broth supplemented with 100 μg/mL ampicillin were each inoculated with 10 mL of overnight bacterial culture. Cultures were then grown at 37 C until an optical density at 600 nm (OD600) of 0.6-0.7. Protein expression was then initiated by the addition of IPTG (final concentration 0.5 mM), followed by growth for 16 hr at 20 C. Cells were pelleted by centrifugation and stored at −80 C until further use. The sumo tag NDM-1 beta-lactamase was purified by nickel affinity chromatography and gel filtration. Briefly, the cell pellets were thawed and re-suspended in 40 mL of buffer A (20 mM HEPES pH 7.4, 0.5 M NaCl, 20 mM imidazole) with one complete protease inhibitor cocktail tablet (Roche) and disrupted by sonication, followed by ultracentrifugation to clarify the lysate. After ultracentrifugation, the supernatant was passed through a 0.22 μm filter before loading onto a 5 mL HisTrap HP affinity column (GE Healthcare Life Sciences, USA) pre-equilibrated with buffer A. Sumo tag NDM-1 was eluted by a linear imidazole gradient (20 mM to 500 mM). Fractions were analyzed by SDS-PAGE. Fractions containing sumo tag NDM-1 were buffer exchanged into 20 mM HEPES pH 7.0, 100 mM NaCl. Cleavage of the sumo tag was then carried out with ULP1 protease overnight at room temperature and then concentrated using a 10 k NMWL Amicon Ultra-15 Centrifugal Filter Unit. The sample was then loaded back onto a nickel affinity column and the flow through was collected, containing the untagged NDM-1. NDM-1 was concentrated and loaded onto a gel filtration column (GE Healthcare Life Sciences) pre-equilibrated with 20 mM HEPES pH 7.0, 100 mM NaCl. Protein concentration was determined by absorbance at 280 using an extinction coefficient of 27,960.
as §1, §2
For NDM-1, the procedures were the same as above except the assay was performed in 100 mM Tris-HCl pH 7.0, 1 μM ZnSO4, 0.01% Triton X-100. In addition, a nitrocefin concentration of 10 μM was used.

OXA-48 = OXA-48 (Klebsiella pneumoniae, UniProt Q6XEC0); experiment: Steady-state kinetic β-lactamase inhibition, OXA-48; type: biochemical; details: read-out: OXA-48 % inhibition at stated concentration
Chain of OXA-48 (Q6XEC0 23-265 limits assumed): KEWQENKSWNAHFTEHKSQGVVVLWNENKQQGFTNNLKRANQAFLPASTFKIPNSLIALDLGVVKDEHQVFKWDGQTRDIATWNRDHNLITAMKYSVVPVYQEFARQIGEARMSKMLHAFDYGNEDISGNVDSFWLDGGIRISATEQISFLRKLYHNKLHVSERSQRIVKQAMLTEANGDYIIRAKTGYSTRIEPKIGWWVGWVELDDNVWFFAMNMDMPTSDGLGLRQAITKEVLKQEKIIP

[1] = test system: BL21(DE3) E. coli expressing KPC-2; experiment: MIC studies, synergy with imipenem (broth microdilution); type: cell-based; details: Escherichia coli, 24 h, read-out: MIC of imipenem
Procedure: Compounds were tested for synergy with the carbapenem antibiotic, imipenem, against BL21(DE3) E. coli expressing KPC-2. MIC values were determined with the Mueller-Hinton broth microdilution method. To test for inhibitory activity, compounds were dissolved in DMSO and dilutions were carried out using LB broth. Compounds were test at 100 μM with increasing concentrations of imipenem. […] After inoculation, the plates are incubated at 37 C for 24 hours. The MIC of the compounds are then determined visually.

T1 sequence (Q9F663 25-293 limits assumed): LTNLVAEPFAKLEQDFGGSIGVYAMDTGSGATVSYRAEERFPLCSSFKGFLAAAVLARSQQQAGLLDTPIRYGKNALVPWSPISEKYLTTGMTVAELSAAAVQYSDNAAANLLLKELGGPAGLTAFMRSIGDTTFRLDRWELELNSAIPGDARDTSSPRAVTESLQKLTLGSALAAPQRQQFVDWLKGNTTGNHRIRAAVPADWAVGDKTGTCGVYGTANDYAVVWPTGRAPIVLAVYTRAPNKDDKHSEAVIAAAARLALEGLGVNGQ

**Q.** O=C(CNc1ccccc1)Nc1nnn[nH]1 [Compound 42] was tested. Which pKi (KPC-2) did it give?
**A.** 2.92

**Q.** With O=C(Nc1nnn[nH]1)c1cn(S(=O)(=O)c2cccc(C(F)(F)F)c2)c2ccccc12 [Compound 27] as the molecule, how does the pKi (KPC-2) read?
**A.** 3.52

**Q.** Which “KPC-2 % inhibition at stated concentration” value (“KPC-2 % inhibition” below) (KPC-2; at 1600 (uM)) does the source give for O=C(N[C@H]1CCCCN(c2nnn[nH]2)C1=O)c1cc(C(F)(F)F)cc2nc[nH]c12.O=CO [Compound 21, (S)—N-(2-oxo-1-(1H-tetrazol-5-yl)azepan-3-yl)-5-(trifluoromethyl)-1H-benzo[d]imidazole-7-carboxamide formate] here?
**A.** 30% at 1600

**Q.** And the pKi (CTX-M14)?
**A.** 3.63

**Q.** And the pKi (SHV-2)?
**A.** 4.22

**Q.** How did the pKi (KPC-2) turn out when O=C(Nc1nnn[nH]1)C(Sc1ccccc1)c1ccccc1 (centres unmarked) [Compound 22, 2-phenyl-2-(phenylthio)-N-(1H-tetrazol-5-yl)acetamide] was run?
**A.** 4.58

**Q.** What about the pKi (NDM-1) of the same molecule?
**A.** 4.24

**Q.** For O=C(Nc1nc(C(=O)Nc2nnn[nH]2)c(-c2ccccc2)s1)c1ncco1 [Compound 35], which inhibition at 800 µM (OXA-48) is on record?
**A.** 20%

**Q.** With O=C(Nc1nnn[nH]1)C1CN(C(=O)c2cccc(C(F)(F)F)c2)c2ccccc21 (centres unmarked) [Compound 2, N-(1H-tetrazol-5-yl)-1-(3-(trifluoromethyl)benzoyl)indoline-3-carboxamide] as the molecule, how does the pKi (KPC-2) read?
**A.** 5.92

**Q.** What about the pKi (NDM-1) of the same molecule?
**A.** 3.02

**Q.** How did the pKi (KPC-2) turn out when O=C(Nc1nnn[nH]1)C(Nc1ccccc1)c1ccccc1 (centres unmarked) [Compound 25, 2-phenyl-2-(phenylamino)-N-(1H-tetrazol-5-yl)acetamide] was run?
**A.** 3.28

**Q.** And the inhibition at 5000 µM (OXA-48)?
**A.** 40%

**Q.** And the pKi (NDM-1)?
**A.** 3.19

**Q.** With O=C(Nc1nnn[nH]1)[C@@H]1CCN(C(=O)c2cccc(C(F)(F)F)c2)C1 [Compound 36] as the molecule, how does the pKi (KPC-2) read?
**A.** 2.70

**Q.** What about the pKi (CTX-M14) of the same molecule?
**A.** 2.53

**Q.** What about the pKi (NDM-1) of the same molecule?
**A.** 4.32

**Q.** How did the pKi (KPC-2) turn out when O=C(Nc1nnn[nH]1)[C@@H]1CCCN(S(=O)(=O)c2cccc(C(F)(F)F)c2)C1 [Compound 9, (R)—N-(1H-tetrazol-5-yl)-1-((3-(trifluoromethyl)phenyl)sulfonyl)piperidine-3-carboxamide] was run?
**A.** 4.11

**Q.** And the pKi (CTX-M14)?
**A.** 3.61

**Q.** What about the inhibition at 4800 µM (OXA-48) of the same molecule?
**A.** 20%

**Q.** How did the pKi (KPC-2) turn out when O=C(Nc1nc(C(=O)Nc2nnn[nH]2)c(-c2ccccc2)s1)c1nccs1 [Compound 6, N-(4-((1H-tetrazol-5-yl)carbamoyl)-5-phenylthiazol-2-yl)thiazole-2-carboxamide] was run?
**A.** 4.59

**Q.** What about the inhibition at 4800 µM (OXA-48) of the same molecule?
**A.** 50%

**Q.** With O=C(Nc1nnn[nH]1)[C@H]1CCN(S(=O)(=O)c2cccc(C(F)(F)F)c2)C1 [Compound 39] as the molecule, how does the pKi (KPC-2) read?
**A.** 2.82

**Q.** What about the pKi (CTX-M14) of the same molecule?
**A.** 2.70

**Q.** What about the “NDM-1 % inhibition at stated concentration” value (from here on “NDM-1 % inhibition”) (NDM-1; at 1800 (uM)) of the same molecule?
**A.** 10% at 1800

**Q.** With C[C@@H](O)[C@H]1C(=O)N2C(C(=O)O)=C(SCCN=CN)C[C@H]12 [Imipenem, imipenem] as the molecule, how does the MIC [1] read?
**A.** 2 µg/mL

**Q.** What does the source list for CC1(C(=O)Nc2nnn[nH]2)CN(S(C)(=O)=O)c2ccccc21 (centres unmarked) [Compound 33]?
**A.** pKi (KPC-2): 2.57; inhibition at 3900 µM (OXA-48): 20%; pKi (NDM-1): 3.79

**Q.** O=C(Nc1nnn[nH]1)[C@H]1CCN(C(=O)c2cccc(C(F)(F)F)c2)C1 [Compound 38] was tested. Which pKi (KPC-2) did it give?
**A.** 2.70

**Q.** What about the pKi (CTX-M14) of the same molecule?
**A.** 2.52

**Q.** And the “NDM-1 % inhibition” value (NDM-1; at 3500 (uM))?
**A.** 40% at 3500

**Q.** How did the pKi (KPC-2) turn out when O=C(Nc1nnn[nH]1)[C@@H]1CCN(S(=O)(=O)c2cccc(C(F)(F)F)c2)C1 [Compound 37] was run?
**A.** 3.33

**Q.** And the pKi (CTX-M14)?
**A.** 3.00

**Q.** What about the “NDM-1 % inhibition” value (NDM-1; at 1800 (uM)) of the same molecule?
**A.** 30% at 1800

**Q.** How did the pKi (KPC-2) turn out when O=C(Nc1nc(C(=O)Nc2nnn[nH]2)c(-c2ccccc2)s1)c1ncc[nH]1.O=CO [Compound 34] was run?
**A.** 3.95

**Q.** And the inhibition at 1600 µM (OXA-48)?
**A.** 35%

**Q.** And the “NDM-1 % inhibition” value (NDM-1; at 1000 (uM))?
**A.** 20% at 1000

**Q.** Which “KPC-2 % inhibition” value (KPC-2; at 4800 (uM)) does the source give for CC(=O)N1CC(C)(C(=O)Nc2nnn[nH]2)c2ccccc21 (centres unmarked) [Compound 32] here?
**A.** 40% at 4800

**Q.** And the “CTX-M14 % inhibition at stated concentration” value (CTX-M14; at 4800 (uM))?
**A.** 10% at 4800

**Q.** And the inhibition at 3900 µM (OXA-48)?
**A.** 16%

**Q.** And the pKi (NDM-1)?
**A.** 3.81

**Q.** O=C(Nc1nnn[nH]1)[C@@H]1CCCN(C(=O)c2cccc(C(F)(F)F)c2)C1 [Compound 40] was tested. Which pKi (KPC-2) did it give?
**A.** 3.96

**Q.** And the inhibition at 4800 µM (OXA-48)?
**A.** 35%

**Q.** What about the “NDM-1 % inhibition” value (NDM-1; at 1000 (uM)) of the same molecule?
**A.** 20% at 1000

**Q.** How did the pKi (KPC-2) turn out when O=C(Nc1nnn[nH]1)c1c[nH]c2ccccc12 [Compound 30] was run?
**A.** 2.52

**Q.** What about the pKi (NDM-1) of the same molecule?
**A.** 3.45

**Q.** CC(c1cccc(C(F)(F)F)c1)n1cc(C(=O)Nc2nnn[nH]2)c2ccccc21 (centres unmarked) [Compound 29] was tested. Which “KPC-2 % inhibition” value (KPC-2; at 1900 (uM)) did it give?
**A.** 50% at 1900

**Q.** And the “CTX-M14 % inhibition at stated concentration” value (CTX-M14; at 1900 (uM))?
**A.** 50% at 1900

**Q.** How did the pKi (KPC-2) turn out when CC1(C(=O)Nc2nnn[nH]2)CN(C(=O)c2cccc(C(F)(F)F)c2)c2ccccc21 (centres unmarked) [Compound 31] was run?
**A.** 3.45

**Q.** And the pKi (NDM-1)?
**A.** 3.70
